The nature of series [1]: Kinetic solubility in PBS. Type of series: physicochemical. Particulars: Phosphate Buffered Saline (PBS), aqueous buffer, kinetic from dmso stock, PBS pH 7.4, 1% DMSO. How it is done: (§1) The assay combines solubility and a non-cell-based Blood Brain Barrier permeability assay (Parallel Artificial Membrane Permeation Assay; PAMPA-BBB) into a single workflow in which a portion of the filtrate from the Solubility filter plate is added to the donor compartment of the MultiScreen filter plate for the PAMPA-BBB analysis. […] Solutions were filtered into a 96-well collection plate using vacuum filtration and then analysed by UV/Vis spectroscopy. The relative solubility was then calculated using the sum of the recorded values as compared to a standard calibration curve. […] PAMPA-BBB determination was carried out in a 96-well MultiScreen Permeability plate and the ability of a compound to diffuse from a Donor to an Acceptor compartment separated by a Porcine Brain Lipid Extract (PBLE) dissolved in dodecane (20 mg/mL) layer on a PVDF membrane support was measured. The assay was performed in duplicate in PBS at pH 7.4 and the analysis is carried out by UV/Vis spectroscopy.

Series [2] concerns the target TTR (Homo sapiens, UniProt P02766). Description: Isothermal titration calorimetry (ITC), one-binding-site model. Set-up: made in house; host or cells: E. coli BL21. Particulars: single-binding-site model, 25 °C. How it is done: At an absorbance value of 600 nm around 0.3, the temperature was shifted to 30 °C.
Data were fitted using the “one-binding-site model” of the Malvern version of ORIGIN v.7. The heat of binding (ΔH), the stoichiometry (n), entropy (ΔS) and the dissociation constant (Kd) were then calculated from plots of the heat evolved per mole of ligand injected versus the molar ratio of ligand to protein using the software provided by the vendor (Table 3). Sample preparation is detailed below. […] A 10 µM protein stock in 2× buffer was then prepared and diluted 1:1 with a 10% DMSO solution, to obtain a 5 µM TTR solution in 1× buffer A and 5% DMSO. Different protein concentrations (3–5 µM) assayed in the replicates were prepared accordingly, starting from a 2× protein solution in 2× buffer A. Each ligand was dissolved in 100% DMSO and a 2 mM stock solution in 100% DMSO was prepared. A 200 µM compound solution was obtained in 10% DMSO and diluted 1:1 with 2× buffer A, to obtain a 100 µM ligand solution to be used for the ITC assays (in 1× buffer A and 5% DMSO).
For orientation: ITC needs no label: the signal is the heat of the interaction.

Series [3] in a line: Caco-2 intestinal permeability. The note with it: human; for recovery at 60 min: Caco-2, pH 7.4, with Elacridar 2 µM; for Papp A→B at 60 min, 10 μM / Papp B→A at 60 min, 10 μM: Caco-2, pH 7.4. Type of series: in vitro ADME, human. How it is done:
(§2) Caco-2 cells (cod. HTB-37) were bought from ATCC (American Type Culture Collection, Rockville, MD, USA). Caco-2 cells were cultured for 21 days on a 24 trans-well plate to reach the right confluence and differentiate until the formation of the intestinal epithelium mimetic monolayer. The test substance permeability was measured in both directions (apical to basolateral [A→B] and basolateral to apical [B→A]) across the cell monolayer. The assay was carried out in HBSS transport medium at pH 7.4. Test substance at single concentration (10 μM) was tested in duplicate at one time point (60 min). Monolayer integrity of Caco-2 cells was evaluated by TEER measurements during the experiment and by Lucifer Yellow test after the incubation with the test compound. The concentrations of the test substance and/or reference controls were measured by LC-MS/MS.
(§3) When the inhibitor leads the efflux ratio to a significant reduction (>50%) or to unity, the test compound is classified as a probable substrate of that efflux transporter. As control, the modulation of the efflux ratio of a reference known substrate (Digoxin) was evaluated with or without the respectively inhibitors in every experiment. […] In parallel, mass balance (%) of recovered test substance was also determined. […] Outside these ranges the permeability data is not reliable.
(Passage across Caco-2 layers is used to estimate intestinal permeability.)

Series [4] has as its system Caco-2 cells. Description: Caco-2 intestinal permeability. The format is in vitro ADME, human. Particulars: reduction of efflux ratio by Elacridar 2 µM. How it is done:
as §2, §3

Series [5] has as its system Caco-2 cells. Particulars: expected value in brackets, cited from earlier work.
Series [6] has as its target TTR. Particulars: sequential model, cited from earlier work.
The subject of series [7] is SH-SY5Y neuroblastoma human cell line. Put plainly: Cytotoxicity in SH-SY5Y cells (ATP viability assay). The note with it: 48 h. Type of series: cell-based. How it is done:
The neuroblastoma cell line SHSY-5Y (ATCC CRL2266) was cultured in EMEM ATCC medium supplemented with 10% FBS (Euroclone CAT No. ECS0180D), 100 units/mL penicillin, and 100 ug/mL streptomycin sulphate (Euroclone CAT No. ECB3001). Cells were grown at 37 °C in an atmosphere of 5% CO2 and plated at 10,000 cells/well in a 96-well plate (Corning Cat. N. 3610). The compounds were dissolved at a concentration of 10 mM in DMSO. Cells were stimulated for 48 h at 37 °C with serial dilutions of the compounds at the following concentrations: 0.1, 1, 10, 50, 100, and 200 μM and dispensed with an HP Dispenser (Tecan), as triplicates for each concentration. DMSO normalisation at 1.5% was performed in each well.
(§4) Cell viability was evaluated by measuring ATP levels using CellTiter Glo (Promega Cat.n. G7570) according to manufacturer’s instructions.

Series [8] concerns HepG2 human liver cancer cell line. Put plainly: Cytotoxicity in HepG2 cells (ATP viability assay). Type of series: cell-based. Particulars: 48 h. How it is done:
Compounds were dissolved at the concentration of 50 mM in DMSO.
DMSO normalisation at 1.0% was performed in each well.
as §4

Series [9] in a line: Blood-brain barrier permeability (PAMPA-BBB). The format is in vitro ADME. How it is done: as §1
The compounds are classified into 2 types: CNS+ compounds that can cross the BBB and CNS- compounds that cannot according to the Pe values (BBB−, Pe < 2 × 10^−6 cm/s; BBB +/−, 2 × 10^−6 cm/s < Pe < 4 × 10^−6 cm/s; BBB+, Pe > 4 × 10^−6 cm/s).
Membrane retention is also evaluated according to Equation (1), (1) 1−Rm=CAccVAcc+CDonorVDonor/Sol×VDonor where Rm is the membrane retention factor. 1 − Rm between 1.2 and 0.8 is considered fully acceptable for the reliability of the results.

Series [10] is described as follows: Chromatographic Hydrophobicity Index (CHI). The format is physicochemical. An excerpt: The assay is a chromatographic fast gradient reversed-phase method which allows to characterize the lipophilicity of compounds in high throughput screening regime at three different pH values (2.0; 7.4; 10.5). The so defined CHI is obtained from the gradient (buffer/Acetonitrile) retention time after calibrating the chromatographic system with a test mixture of ten known standard compounds. For most compounds, CHI is between 0 and 100 and it approximates the percentage (by volume) of acetonitrile required to achieve an equal distribution of compound between the mobile and the lipophilic stationary phase of a C18 chromatographic column. Compounds that are not retained on the column are assigned to a CHI value < 0, which means very low lipophilicity. For highly lipophilic compounds, which are strongly retained by the column, a CHI value of >100 is assigned. For any value in between, the actual CHI value is calculated based on the calibration line of the reference compounds [49].

For series [11] the following is noted: cited from earlier work.

These results are taken from PMC10779086, “3-O-Methyltolcapone and Its Lipophilic Analogues Are Potent Inhibitors of Transthyretin Amyloidogenesis with High Permeability and Low Toxicity” (International Journal of Molecular Sciences, 2023).

“And” between values parts separate entries of the source, which are not always exact repeats. Equal values may be shown once. Read-outs that look alike come from different tables or passages of the source.

What is called solubility is the concentration that dissolves in the medium under given conditions. In the case of `Cn1c(=O)c2[nH]cnc2n(C)c1=O` [Theophylline, theophylline, reference compound], in series [1], the solubility is > 500 µM.
For the compound `O=C(O)c1ccc2nc(-c3cc(Cl)cc(Cl)c3)oc2c1` [tafamidis, reference compound], on TTR [2], the “n (stoichiometry of binding, ligand:TTR tetramer)” value was 2.4 ± 0.1; the “∆H” value was -3.2 kcal/mol and -3.2 ± 0.3 kcal/mol.
The Papp A→B is the apparent permeability from the apical to the basolateral side of a cell layer. A lower Papp A→B goes with slow passage. Usually Papp B→A stands for the apparent permeability from the basolateral to the apical side of a cell layer. Take `C[C@H]1O[C@@H](O[C@H]2[C@@H](O)C[C@H](O[C@H]3[C@@H](O)C[C@H](O[C@H]4CC[C@@]5(C)[C@H](CC[C@@H]6[C@@H]5C[C@@H](O)[C@]5(C)[C@@H](C7=CC(=O)OC7)CC[C@]65O)C4)O[C@@H]3C)O[C@@H]2C)C[C@H](O)[C@@H]1O` [Digoxin, reference compound]: the recovery at 60 min, 10 µM worked out at 67 ± 5% in series [3] (Caco-2, pH 7.4, A→B) and 71 ± 6% in series [3] (Caco-2, pH 7.4, B→A). Further, the figures for the recovery at 60 min in series [3] (A→B + Elacridar 2 µM) and in series [3] (B→A + Elacridar 2 µM) were 72 ± 1% and 75 ± 3%, respectively. In [3] (Caco-2, pH 7.4, without inhibitor, read-out: Efflux Ratio (Papp BA/Papp AB)), the efflux ratio at 60 min, 10 μM is > 10. Also, the Papp A→B at 60 min, 10 μM in series [3] was 0.2 ± 0.1 ×10⁻⁶ cm/s. The compound also displayed a Papp B→A at 60 min, 10 μM in series [3] of 14.1 ± 2.6 ×10⁻⁶ cm/s. Moreover, in the series on Caco-2 cells [4], the “Efflux Ratio (Reduction %)” value is reported as 96%. In addition, the entries for the “Papp [Expected Values]” value in the series on Caco-2 cells [5] (A→B) and with Caco-2 cells [5] (B→A) were 2 nm/s and 139 nm/s, respectively.
By Kd is commonly meant the free concentration of one partner at which half of the binding sites on the other are occupied at equilibrium, for simple one-to-one binding. The EC50 is the concentration giving half of the maximal effect. Regarding `Cc1ccc(C(=O)c2cc(O)c(O)c([N+](=O)[O-])c2)cc1` [tolcapone], the equilibrium dissociation constant (Kd) is 0.021 µM on TTR [6] (read-out: Kd′ (first binding site)) and 0.058 µM on TTR [6] (read-out: Kd″ (second binding site)). In addition, the concentration for a half-maximal effect (EC50) in [7] amounted to 29.8 ± 1.1 µM; in series [8] it was 17.5 ± 2.4 µM. The recovery at 60 min, 10 µM was determined as 53 ± 1% in series [3] (Caco-2, pH 7.4, A→B) and 70 ± 4% in series [3] (Caco-2, pH 7.4, B→A). Moreover, in series [3], the Papp A→B at 60 min, 10 μM turned out to be 10.1 ± 1.2 ×10⁻⁶ cm/s. The same compound yielded a Papp B→A at 60 min, 10 μM in [3] of 20.6 ± 5.8 ×10⁻⁶ cm/s. Besides, the solubility in series [1] is > 500 µM. Further, the “n (stoichiometry of binding, ligand:TTR tetramer)” value on TTR [2] is recorded as 2.0 ± 0.1. In addition, the “∆H” value at TTR [2] is -11.8 kcal/mol and -11.8 ± 0.5 kcal/mol. For the same compound, the “1-Rm (membrane retention)” value in series [9] amounted to 0.9. In [9] (PBS pH 7.4, read-out: BBB-Pe), the Papp was found to be 5.6 ×10⁻⁶ cm/s. Moreover, the “CNS Class” value in [9] (classified by Pe) is listed as “CNS+ (BBB+, Pe > 4 × 10^−6 cm/s)”. Moreover, in series [10] (pH 2.0), the “CHI (pH 2.0)” value is recorded as 78.2. In series [10] (pH 10.5), the “CHI (pH 10.5)” value was 49.3.
Take `Cn1c(=O)c2c(ncn2C)n(C)c1=O` [Caffeine, caffeine]: in series [11] (expected class in brackets), the “CNS Class [Expected Values]” value is “CNS− [CNS−] (BBB−, Pe < 2 × 10^−6 cm/s)”. The “BBB-Pe [Expected Values]” value in series [11] (expected value in brackets) is 1.3 10^−6 cm/s.
In turn, `COCCc1ccc(OCC(O)CNC(C)C)cc1` (stereo not shown) [Metoprolol, reference compound] came in with a recovery at 60 min, 10 µM in [3] (Caco-2, pH 7.4, A→B) of 105 ± 5%. The Papp A→B at 60 min, 10 μM in series [3] was > 40 ×10⁻⁶ cm/s. Also, the “Papp [Expected Values]” value with Caco-2 cells [5] (A→B) was >400 [>400] nm/s.
